Reference: article PMC10762035, “Molecular basis of human trace amine-associated receptor 1 activation” (Nature Communications, 2024)
Numbering of substitutions follows the chain as printed. Values joined by “and” are separate entries in the source; they are usually repeats but may differ in a detail not shown here. Equal values may be shown once.

Columns and labels:
Assay type in all cases: cell-based
[1] = biological target: T1, hTA1 S107C (Homo sapiens, UniProt Q96RJ0, S107C); experiment: GloSensor cAMP accumulation assay, S107C mutant;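 further: cells transiently co-expressing receptor and GloSensor biosensor, luminescence read after 30 min agonist exposure at room temperature, concentration-response fitted by nonlinear regression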
T1 construct: expressed in transfected cells; host or cells: HEK293T
T1 sequence (Q96RJ0 1-339 S107C): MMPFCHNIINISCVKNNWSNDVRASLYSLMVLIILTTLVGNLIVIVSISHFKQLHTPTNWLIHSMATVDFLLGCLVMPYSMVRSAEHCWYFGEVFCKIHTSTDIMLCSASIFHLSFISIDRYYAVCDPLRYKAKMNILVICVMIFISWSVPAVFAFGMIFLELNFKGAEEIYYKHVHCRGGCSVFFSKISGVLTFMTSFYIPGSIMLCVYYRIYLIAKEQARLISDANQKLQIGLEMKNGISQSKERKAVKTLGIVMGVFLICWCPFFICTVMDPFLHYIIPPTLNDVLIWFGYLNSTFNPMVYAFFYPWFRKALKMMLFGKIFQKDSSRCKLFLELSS

[2] = biological target: T2, β2AR-Nterm-hTA1-F112^3.41W (CryoEM Construct) (Homo sapiens, UniProt Q96RJ0, F112W); experiment: GloSensor cAMP accumulation assay, cryoEM construct;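 further: cells transiently co-transfected with the receptor construct and GloSensor cAMP biosensor, luminescence read after 30 min compound exposure at room temperature in the dark as cAMP accumulation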;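 on Normalized Luminescence Counts (N=2): normalized to the maximum response of β-PEA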
T2 construct: FLAG (N); 10xHis (N); TEV protease site (N); expressed in transfected cells; host or cells: HEK293T
T2 sequence (Q96RJ0 with tags, fused parts or gaps F112W): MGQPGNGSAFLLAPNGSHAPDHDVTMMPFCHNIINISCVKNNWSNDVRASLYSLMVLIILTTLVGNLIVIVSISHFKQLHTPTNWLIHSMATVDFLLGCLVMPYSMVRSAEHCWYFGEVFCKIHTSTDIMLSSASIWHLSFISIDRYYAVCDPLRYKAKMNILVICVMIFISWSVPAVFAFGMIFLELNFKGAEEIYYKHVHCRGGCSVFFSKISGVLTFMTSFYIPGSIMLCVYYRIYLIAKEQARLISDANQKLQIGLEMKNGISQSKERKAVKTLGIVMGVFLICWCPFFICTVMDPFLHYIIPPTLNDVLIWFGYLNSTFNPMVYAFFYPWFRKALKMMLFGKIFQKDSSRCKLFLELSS

[3] = biological target: T3, hTA1 b2N (Homo sapiens, UniProt Q96RJ0); experiment: GloSensor cAMP accumulation assay, b2N construct; details: b2N, n=2
T3 construct: read by me as the first 25 residues of β2AR (N); expressed in transfected cells; host or cells: HEK293T
T3 sequence (Q96RJ0 with tags, fused parts or gaps): as the sequence (Q96RJ0 with tags, fused parts or gaps F112W) above, with W137F counted along it

[4] = biological target: T4, hTA1 C88/178S (Homo sapiens, UniProt Q96RJ0, C178S/C88S); experiment: GloSensor cAMP accumulation assay, C88S/C178S double mutant; details: for Normalized Luminescence Counts (N=2): log[Compound], single replicate values
T4 construct: expressed in transfected cells; host or cells: HEK293T
T4 sequence (Q96RJ0 1-339 C88S/C178S): T1 sequence (Q96RJ0 1-339 S107C) with C88S, C107S, C178S

[5] = biological target: T5, hTA1 T271A (Homo sapiens, UniProt Q96RJ0, T271A); experiment: GloSensor cAMP accumulation assay, T271A mutant
T5 construct: expressed in transfected cells; host or cells: HEK293T
T5 sequence (Q96RJ0 1-339 T271A): T1 sequence (Q96RJ0 1-339 S107C) with C107S, T271A

[6] = Cryo EM Construct, mean of each independent experiment (3 replicates)
[7] = C88S, C178S, each row is one independent experiment, 3 replicates

SMILES: NCCc1ccc(Oc2ccc(O)cc2)c(I)c1 [T1AM, 3-iodothyronamine]
- ΔEmax values (each mutant value - WT average) ([1]; S107C mutant minus WT average): 9.303
- Emax values, Mean ([1]; S107C mutant, β-PEA = 100, each line an independent experiment, 3 replicates): 79.7491 and 64.3505
- Span ± SEM (Emax normalized to β-PEA) ([1]; S107C, n=2): 72.05 ± 7.70
- pEC50 ± SEM ([1]; S107C, n=2): 5.87 ± 0.53
- EC50 ([1]; S107C, n=2, read-out: EC50): 1.35 µM
- ΔEmax values (each mutant value - WT average), Mean ([2]; Cryo EM Construct minus WT average): 57.4068 and 36.3707
- Emax values, Mean [2, 6]: -0.05087 and 0.4178
- pEC50 values, Mean [2, 6]: 6.078 and 6.547
- Normalized Luminescence Counts (N=2) ([2]; CryoEM Construct, log[Compound], M = -5, single replicates): 123.162 and 140.16 and 121.528 and 161.688
- Span ± SEM (Emax normalized to β-PEA) ([2]; CryoEM Construct, n=2): 115.44
- pEC50 ± SEM ([2]; CryoEM Construct, n=2): 6.3 ± 0.04
- EC50 ([2]; CryoEM Construct, n=2, read-out: EC50): 0.491 µM
- Span ± SEM (Emax normalized to β-PEA) [3]: 80.48
- pEC50 ± SEM [3]: 6.65 ± 0.05
- EC50 ([3]; read-out: EC50): 0.224 µM
- Span ± SEM (Emax normalized to β-PEA) ([4]; C88/178S, n=2): 98.9 ± 13.16
- pEC50 ± SEM ([4]; C88/178S, n=2): 5.96 ± 0.05
- EC50 ([4]; C88/178S, n=2, read-out: EC50): 1.09 µM
- pEC50 values, Mean [4, 7]: 6.084 and 5.841
- ΔEmax values (each mutant value - WT average), Mean [4, 7]: 15.2915 and 41.6133
- ΔpEC50 values (each mutant value - WT average), Mean [4, 7]: -0.04547 and -0.2881
- Normalized Luminescence Counts (N=2) ([4]; C88S, C178S, M = -5): 73.2176 and 97.3588 and 72.5957 and 103.925 and 90.4821 and 104.378
- Normalized Luminescence Counts (N=2) ([4]; C88S, C178S, M = -5.522): 67.1681 and 64.6805 and 64.737 and 67.222 and 55.8941 and 86.253
- Normalized Luminescence Counts (N=2) ([4]; C88S, C178S, M = -6): 53.4297 and 44.4403 and 51.5074 and 51.9671 and 38.3735 and 50.6077
- Normalized Luminescence Counts (N=2) ([4]; C88S, C178S, M = -6.522): 23.5782 and 23.1825 and 20.8079 and 20.0978 and 14.6604 and 27.0456
- Normalized Luminescence Counts (N=2) ([4]; C88S, C178S, M = -7): 11.3097 and 9.048 and 12.1012 and 6.655 and 6.504 and 10.7333
- Normalized Luminescence Counts (N=2) ([4]; C88S, C178S, M = -7.522): 2.433 and 2.8292 and 3.225 and 0.6137 and -1.652 and -0.1415
- Normalized Luminescence Counts (N=2) ([4]; C88S, C178S, M = -8): 0.6808 and 0.7373 and 1.19 and -0.1415 and -0.2925 and 0.9158
- Normalized Luminescence Counts (N=2) ([4]; C88S, C178S, M = -8.522): 0.7373 and 0.7939 and 0.285 and -1.501 and 0.1606 and -0.4436
- Normalized Luminescence Counts (N=2) ([4]; C88S, C178S, M = -9): 0.4547 (2×) and 1.981 and -1.199 and -2.558 and -1.652
- Normalized Luminescence Counts (N=2) ([4]; C88S, C178S, M = -9.522): 0.285 (2×) and 0.2285 and -0.4436 and -2.105 and -1.199
- Normalized Luminescence Counts (N=2) ([4]; C88S, C178S, M = -10): 1.19 and 0.0589 and 2.2073 and 0.4627 and 0.3116 and -0.1415
- Normalized Luminescence Counts (N=2) ([4]; C88S, C178S, M = -10.522): 1.077 and 0.285 and 1.1331 and 0.1606 and -2.86 and -1.652
- Normalized Luminescence Counts (N=2) ([4]; C88S, C178S, M = -11): 1.529 and 0.9635 and 0.2285 and -1.048 and -1.35 and -1.652
- Normalized Luminescence Counts (N=2) ([4]; C88S, C178S, M = -11.522): 1.19 and 1.246 and 0.4547 and -0.5946 and -1.199 (2×)
- Normalized Luminescence Counts (N=2) ([4]; C88S, C178S, M = -12): 0.3981 and 0.172 and 1.981 and -1.501 and -1.048 and -0.2925
- Normalized Luminescence Counts (N=2) ([4]; C88S, C178S, M = -12.522): 1.1331 and 2.773 and 1.19 and -0.1415 and -1.35 and -0.8967
- Emax values, Mean ([4]; C88S, C178S, normalized (β-PEA = 100), each row is one independent experiment, 3 replicates): 85.7378 and 112.06
- ΔpEC50 values (each mutant value - WT average), Mean ([5]; T271A mutant minus WT average, Figure 5B): -0.6347 and -0.7159
- pEC50 values, Mean ([5]; T271A mutant, Figure 5B, each row one independent experiment (3 replicates)): 5.495 and 5.413
- Emax values, Mean ([5]; T271A mutant, Figure 5B, β-PEA = 100, each row one independent experiment (3 replicates)): 41.9229 and 94.6558
- Span ± SEM (Emax normalized to β-PEA) ([5]; T271A, n=2): 68.29
- pEC50 ± SEM ([5]; T271A, n=2): 5.45 ± 0.03
- EC50 ([5]; T271A, n=2, read-out: EC50): 3.52 µM
